# System: BV2 cells
# Assay: Intracellular calcium accumulation in BV2 cells by live fluorescence microscopy with a calcium fluorescent probe
# Format: cell-based
# Conditions: Compound at 10 uM, FIG. 7
# Description: Described herein, in some embodiments CRAC channel inhibitors are neuroprotectants in brain ischemia and related conditions. A neuron cell line (Neuro-2A, N-2A) was either cultured alone or in co-culture with microglial BV2 cells. Cells were exposed to a cycle of 2 h oxygen glucose deprivation (OGD) plus 22 h reoxygenation in the absence or presence of inhibitor (concentrations 1-50 μM). Cell viability was determined using quantitative calorimetric MTT assay and live/dead assay using immunofluorescence imaging. Toll-like receptor (TLR)-3 and -4 agonists induced inflammatory responses in microglia leading to increased nitric oxide (NO) generation as determined by the Greiss reagent. Intracellular calcium was determined by live fluorescence microscopy using a calcium fluorescent probe. Peroxide levels were measured as an indicator of oxidative stress. CRAC channels proteins (STIM1 & ORAI1), phosphoactive stress kinase JNK1/2, iNOS and expression was determined by immunoblotting assays. NFκB, NFAT and CREB transcription factors activation was measured by phosphorylation and nuclear translocation. […] The functional activity of the CRAC channels was evaluated by the effect on intracellular calcium accumulation in BV2 cells. […]
# Fluorescence-based A neuron cell line (Neuro-2A, N-2A) was either cultured alone or in co-culture with microglial BV2 cells. […]
compound,measurement,value
"Cc1nc2cc(C)c(-c3cnc(NC(=O)c4c(F)ccc(F)c4F)s3)cc2o1 [Compound D, N-(5-(2,5-dimethylbenzo[d]oxazol-6-yl)thiazol-2-yl)-2,3,6-trifluorobenzamide]",LPS activated calcium accumulation,blunts LPS activated calcium accumulation

# Source: patent US10478435B2, “Use of CRAC channel inhibitors for the treatment of stroke and traumatic brain injury” (CalciMedica, Inc., priority 2015, dated 2019)
